Converted amounts (≈) assume the structure as drawn.
Key:
Format in all cases: cell-based
B. fragilis = assay: Antibacterial activity, microdilution in culture broth (NCCLS), strain G (anaerobic); details: Bacteroides fragilis, anaerobic hospital strain, inoculum 5×10^5 UFC/ml
Excerpt: (§1) The antibacterial activity of the new synthesised compounds on the various strains of the bacterial species was implemented using the technique of microdilution in culture broth according to the regulations of the National Committee for Clinical Laboratory Standards (NCCLS), (NCCLS. 1993. Methods for dilution antimicrobial susceptibility tests for bacteria that grow aerobically. Approved standard M7-A3. NCCLS, Vilanova. Pa., and NCCLS. 1993. Methods for dilution antimicrobial susceptibility tests for anaerobic bacteria […]. Approved standard M1-A3. NCCLS, Vilanova. Pa.).
(§2) The inoculum used was 5×10^5 UFC/ml following dilution of the cultures overnight in the exponential phase of bacterial growth.
(§3) The MIC expressed in mg/l was defined as the minimum concentration of antibiotic which inhibited any visible growth.
(§4) Linezolid was included as comparative compound.
(§5) The compounds were tested on the strains of G(+) and G(−) bacteria set out in Table 1, in which: […]

S. epidermidis = assay: Antibacterial activity, microdilution in culture broth (NCCLS), strain E; details: Staphylococcus epidermidis, G (+) hospital strain, inoculum 5×10^5 UFC/ml
Excerpt: as §1, §2, §3, §4, §5

H. influenzae = assay: Antibacterial activity, microdilution in culture broth (NCCLS), strain I; details: Haemophilus influenzae, G (−) hospital strain, inoculum 5×10^5 UFC/ml
Excerpt: as §1, §2, §3, §4, §5

[1] = system: S. pneumoniae resistant to penicillin; assay: Antibacterial activity, microdilution in culture broth (NCCLS), strain C; details: Streptococcus pneumoniae, G (+) hospital strain, inoculum 5×10^5 UFC/ml
Excerpt: as §1, §2, §3, §4, §5

[2] = system: S. aureus resistant to meticillin; assay: Antibacterial activity, microdilution in culture broth (NCCLS), strain A; details: Staphylococcus aureus, G (+) hospital strain, inoculum 5×10^5 UFC/ml
Excerpt: as §1, §2, §3, §4, §5

E. coli = assay: Antibacterial activity, microdilution in culture broth (NCCLS), strain H; details: Escherichia coli, G (−) hospital strain, inoculum 5×10^5 UFC/ml
Excerpt: as §1, §2, §3, §4, §5

S. agalactiae = assay: Antibacterial activity, microdilution in culture broth (NCCLS), strain D; details: Streptococcus agalactiae, G (+) hospital strain, inoculum 5×10^5 UFC/ml
Excerpt: as §1, §2, §3, §4, §5

[3] = system: E. faecalis resistant to vancomycin; assay: Antibacterial activity, microdilution in culture broth (NCCLS), strain B; details: Enterococcus faecalis, G (+) hospital strain, inoculum 5×10^5 UFC/ml
Excerpt: as §1, §2, §3, §4, §5

M. Catarrahalis = assay: Antibacterial activity, microdilution in culture broth (NCCLS), strain J; details: G (−) hospital strain, inoculum 5×10^5 UFC/ml
Excerpt: as §1, §2, §3, §4, §5

S. pyogenes = assay: Antibacterial activity, microdilution in culture broth (NCCLS), strain F; details: Streptococcus pyogenes, G (+) hospital strain, inoculum 5×10^5 UFC/ml
Excerpt: as §1, §2, §3, §5

| SMILES | MIC (B. fragilis) [µg/mL] | MIC (S. epidermidis) [µg/mL] | MIC (H. influenzae) [µg/mL] | MIC [1] [µg/mL] | MIC [2] [µg/mL] | MIC (E. coli) [µg/mL] | MIC (S. agalactiae) [µg/mL] | MIC [3] [µg/mL] | MIC (M. Catarrahalis) [µg/mL] | MIC (S. pyogenes) [µg/mL] |
| --- | --- | --- | --- | --- | --- | --- | --- | --- | --- | --- |
| CC(=O)NC[C@H]1CN(c2ccc(N3CCN(c4nc5c(cc4F)c(=O)c(C(=O)O)cn5-c4ccc(F)cc4F)CC3)c(F)c2)C(=O)O1 [EXAMP. 20, 7-(4-{4-[5-(S)-(acetylamino-methyl)-2-oxo-oxazolidin-3-yl]-2-fluoro-phenyl}-piperazin-1-yl)-1-(2,4-difluoro-phenyl)-6-fluoro-4-oxo-1,4-dihydro-[1,8]Naphthyridine-3-carboxylic Acid] | > 64 | 0.5 (≈ 0.764 µM) | 2 (≈ 3.06 µM) | 1 (≈ 1.53 µM) | 1 (≈ 1.53 µM) | > 64 | 1 (≈ 1.53 µM) | 2 (≈ 3.06 µM) | 4 (≈ 6.11 µM) | 1 (≈ 1.53 µM) |
| CC(=O)NC[C@H]1CN(c2ccc(N3CCN(c4c(F)cc5c(=O)c(C(=O)O)cn6c5c4OCC6C)CC3)c(F)c2)C(=O)O1 (stereo partly drawn) [EXAMP. 7, 9-(4-{4-[5-(S)-(acetylamino-methyl)-2-oxo-oxazolidin-3-yl]-2-fluoro-phenyl}-piperazin-1-yl)-8-fluoro-3-methyl-6-oxo-2,3-dihydro-6H-1-oxa-3a-aza-phenalene-5-carboxylic Acid] | 2 (≈ 3.35 µM) | 0.25 (≈ 0.418 µM) | 4 (≈ 6.69 µM) | 0.25 (≈ 0.418 µM) | 0.25 (≈ 0.418 µM) | 8 (≈ 13.4 µM) | 0.5 (≈ 0.837 µM) | 0.5 (≈ 0.837 µM) | 1 (≈ 1.67 µM) | 0.25 (≈ 0.418 µM) |
| CCOC(=O)c1cn(C2CC2)c2nc(N3CCN(c4ccc(N5C[C@H](CNC(C)=O)OC5=O)cc4F)CC3)c(F)cc2c1=O [EXAMP. 16, 7-(4-{4-[5-(S)-(acetylamino-methyl)-2-oxo-oxazolidin-3-yl]-2-fluoro-phenyl}-piperazin-1-yl)-1-cyclopropyl-6-fluoro-4-oxo-1,4-dihydro-[1,8]Naphthyridine-3-carboxylic Acid Ethyl Ester] | 8 (≈ 13.1 µM) | 2 (≈ 3.28 µM) | > 64 | 1 (≈ 1.64 µM) | 4 (≈ 6.55 µM) | > 64 | 1 (≈ 1.64 µM) | 2 (≈ 3.28 µM) | 8 (≈ 13.1 µM) | 1 (≈ 1.64 µM) |
| CC(=O)NC[C@H]1CN(c2ccc(N(C)C3CCN(c4c(F)cc5c(=O)c(C(=O)O)cn6c5c4OCC6C)C3)c(F)c2)C(=O)O1 (stereo partly drawn) [EXAMP. 6, 9-[3-({4-[5-(S)-(acetylamino-methyl)-2-oxo-oxazolidin-3-yl]-2-fluoro-phenyl}-methyl-amino)-pyrrolidin-1-yl]-8-fluoro-3-methyl-6-oxo-2,3-dihydro-6H-1-oxa-3a-aza-phenalen-5-carboxylic Acid] | 16 (≈ 26.2 µM) | 0.5 (≈ 0.818 µM) | < 0.125 | 1 (≈ 1.64 µM) | 2 (≈ 3.27 µM) | 2 (≈ 3.27 µM) | 0.5 (≈ 0.818 µM) | 1 (≈ 1.64 µM) | 0.25 (≈ 0.409 µM) | 1 (≈ 1.64 µM) |
| CCNC(=O)NC[C@H]1CN(c2ccc(N3CCN(c4cc5c(cc4F)c(=O)c(C(=O)O)cn5C4CC4)CC3)c(F)c2)C(=O)O1 [EXAMP. 10, 1-cyclopropyl-7-[4-(4-{5-(S)-[(3-ethyl-ureido)-methyl]-2-oxo-oxazolidin-3-yl}-2-fluoro-phenyl)-piperazin-1-yl]-6-fluoro-4-oxo-1,4-dihydro-quinoline-3-carboxylic Acid] | 4 (≈ 6.55 µM) | 0.25 (≈ 0.409 µM) | 4 (≈ 6.55 µM) | 1 (≈ 1.64 µM) | 1 (≈ 1.64 µM) | 64 (≈ 105 µM) | 1 (≈ 1.64 µM) | 2 (≈ 3.28 µM) | 2 (≈ 3.28 µM) | 1 (≈ 1.64 µM) |
| C#CC(O)[C@H]1CN(c2ccc(N3CCN(c4nc5c(cc4F)c(=O)c(C(=O)O)cn5-c4ccc(F)cc4F)CC3)c(F)c2)C(=O)O1 (stereo partly drawn) [EXAMP. 19, 1-(2,4-difluoro-phenyl)-6-fluoro-7-(4-{2-fluoro-4-[5-(R)-(1-hydroxy-prop-2-inyl)-2-oxo-oxazolidin-3-yl]-phenyl}-piperazin-1-yl)-4-oxo-1,4-dihydro-[1,8]Naphthyridine-3-carboxylic Acid] | > 64 | 4 (≈ 6.27 µM) | 1 (≈ 1.57 µM) | 4 (≈ 6.27 µM) | 4 (≈ 6.27 µM) | 32 (≈ 50.2 µM) | 8 (≈ 12.5 µM) | 8 (≈ 12.5 µM) | 2 (≈ 3.14 µM) | 8 (≈ 12.5 µM) |
| CCOC(=O)NC[C@H]1CN(c2ccc(N3CCN(c4cc5c(cc4F)c(=O)c(C(=O)O)cn5C4CC4)CC3)c(F)c2)C(=O)O1 [EXAMP. 11, 1-cyclopropyl-7-(4-{4-[5-(S)-(ethoxycarbonylamino-methyl)-2-oxo-oxazolidin-3-yl]-2-fluoro-phenyl}-piperazin-1-yl)-6-fluoro-4-oxo-1,4-dihydro-quinoline-3-carboxylic Acid] | 1 (≈ 1.64 µM) | 0.125 (≈ 0.204 µM) | 4 (≈ 6.54 µM) | 0.5 (≈ 0.818 µM) | 0.5 (≈ 0.818 µM) | 32 (≈ 52.3 µM) | 1 (≈ 1.64 µM) | 0.5 (≈ 0.818 µM) | 1 (≈ 1.64 µM) | 0.5 (≈ 0.818 µM) |
| CC(=O)NC[C@H]1CN(c2ccc(N3CCN(c4nc5c(cc4F)c(=O)c(C(=O)O)cn5C4CC4)CC3)c(F)c2)C(=O)O1 [EXAMP. 21, 7-(4-{4-[5-(S)-(acetylamino-methyl)-2-oxo-oxazolidin-3-yl]-2-fluoro-phenyl}-piperazin-1-yl)-1-cyclopropyl-6-fluoro-4-oxo-1,4-dihydro-[1,8]Naphthyridine-3-carboxylic Acid] | 0.25 (≈ 0.429 µM) | < 0.125 | 2 (≈ 3.43 µM) | < 0.125 | 0.25 (≈ 0.429 µM) | 64 (≈ 110 µM) | < 0.125 | < 0.125 | 0.5 (≈ 0.858 µM) | < 0.125 |
| CC(=O)NC[C@H]1CN(c2ccc(N3CCN(c4c(F)cc5c(=O)c(C(=O)O)cn6c5c4OCC6C)CC3)cc2)C(=O)O1 (stereo partly drawn) [EXAMP. 5, 9-(4-{4-[5-(S)-(acetylamino-methyl)-2-oxo-oxazolidin-3-yl]-phenyl}-piperazin-1-yl)-8-fluoro-3-methyl-6-oxo-2,3-dihydro-6H-1-oxa-3a-aza-phenalen-5-carboxylic Acid] | 2 (≈ 3.45 µM) | 0.25 (≈ 0.431 µM) | 1 (≈ 1.73 µM) | 0.5 (≈ 0.863 µM) | 0.5 (≈ 0.863 µM) | 4 (≈ 6.9 µM) | 0.5 (≈ 0.863 µM) | 0.5 (≈ 0.863 µM) | 1 (≈ 1.73 µM) | 0.5 (≈ 0.863 µM) |
| CC(=O)NC[C@H]1CN(c2ccc(N3CCN(c4cc5c(cc4F)c(=O)c(C(=O)O)cn5C4CC4)CC3)c(F)c2)C(=O)O1 [EXAMP. 1 + 8, 7-(4-{4-[5-(S)-(acetylamino-methyl)-2-oxo-oxazolidin-3-yl]-2-fluoro-phenyl}-piperazin-1-yl)-1-cyclopropyl-6-fluoro-4-oxo-1,4-dihydro-quinoline-3-carboxylic Acid] | 0.25 | 0.125 | 0.25 | < 0.125 | 0.25 | 8 | 0.125 | 0.125 | 0.25 | < 0.125 |
| CC(=O)NC[C@H]1CN(c2ccc(N3CCN(c4c(F)cc5c(=O)c(C(=O)O)cn(CCF)c5c4F)CC3)c(F)c2)C(=O)O1 [EXAMP. 22, 7-(4-{4-[5-(S)-(acetylamino-methyl)-2-oxo-oxazolidin-3-yl]-2-fluoro-phenyl}-piperazin-1-yl)-6,8-difluoro-1-(2-fluoro-ethyl)-4-oxo-1,4-dihydro-quinoline-3-carboxylic Acid] | 0.5 (≈ 0.826 µM) | < 0.125 | 2 (≈ 3.3 µM) | 0.25 (≈ 0.413 µM) | < 0.125 | 64 (≈ 106 µM) | < 0.125 | < 0.125 | 0.5 (≈ 0.826 µM) | < 0.125 |
| CCn1cc(C(=O)O)c(=O)c2cc(F)c(N3CCN(c4ccc(N5C[C@H](CNC(C)=O)OC5=O)cc4F)CC3)c(F)c21 [EXAMP. 3, 7-(4-{4-[5-(S)-(acetylamino-methyl)-2-oxo-oxazolidin-3-yl]-2-fluoro-phenyl}-piperazin-1-yl)-1-ethyl-6,8-difluoro-4-oxo-1,4-dihydro-quinoline-3-carboxylic Acid] | 0.5 (≈ 0.851 µM) | < 0.125 | 4 (≈ 6.81 µM) | < 0.125 | < 0.125 | 64 (≈ 109 µM) | < 0.125 | < 0.125 | 0.5 (≈ 0.851 µM) | < 0.125 |
| CC(=O)NC[C@H]1CN(c2ccc(N3CCOCC3)c(F)c2)C(=O)O1 [Linezolid, reference compound] | 2 (≈ 5.93 µM) | 1 (≈ 2.96 µM) | 16 (≈ 47.4 µM) | 1 (≈ 2.96 µM) | 2 (≈ 5.93 µM) | > 64 | 2 (≈ 5.93 µM) | 2 (≈ 5.93 µM) | 16 (≈ 47.4 µM) |  |

From US20040147545A1, “Derivatives of oxazolidinones as antibacterial agents” (priority 2001, published 2004)
